# Data published in US20140088069A1, “NOVEL ANTIBACTERIAL COMBINATION THERAPY” (priority 2011, published 2014).
# Where two headings read alike, the source gives them in different places.
# How the values were obtained:
# HA-MRSA USA200/EMRSA16 = experiment: Checkerboard (FIC) analysis, HA-MRSA USA200/EMRSA16; type: cell-based, Staphylococcus aureus; details: for MIC: Staphylococcus aureus
# CA-MRSA USA400/MW2 = experiment: Checkerboard (FIC) analysis, CA-MRSA USA400/MW2; type: cell-based, Staphylococcus aureus; details: for MIC: Staphylococcus aureus
# RN4220 = experiment: Checkerboard (FIC) analysis, RN4220; type: cell-based, Staphylococcus aureus
# Procedure: (§3) Here a matrix of drug concentrations were tested in combinations at the concentrations shown (μg/mL). […] FIC index is a measure of synergy and is calculated as follows: FIC index=FIC (cefuroxime)+FIC (drug compound).
# HA-MRSA USA100/800/NY = experiment: Checkerboard (FIC) analysis, HA-MRSA USA100/800/NY; type: cell-based, Staphylococcus aureus; details: for MIC: Staphylococcus aureus
# SA178R1 = experiment: Checkerboard (FIC) analysis, SA178R1; type: cell-based, Staphylococcus aureus; details: for MIC: Staphylococcus aureus
# HA-MRSA [1] = experiment: Checkerboard (FIC) analysis, HA-MRSA (Table 1 r10); type: cell-based, Staphylococcus aureus; details: for MIC: Staphylococcus aureus
# HA-MRSA USA500 = experiment: Checkerboard (FIC) analysis, HA-MRSA USA500; type: cell-based, Staphylococcus aureus; details: for MIC: Staphylococcus aureus
# CA-MRSA USA300 = experiment: Checkerboard (FIC) analysis against CA-MRSA USA300; type: cell-based, Staphylococcus aureus; details: for MIC: Staphylococcus aureus
# Procedure: (§1) Here a matrix of drug concentrations were tested in combinations at the concentrations shown (μg/mL). Greyscale indicates growth—darker is more growth, lighter is less growth. FIC index is a measure of synergy and is calculated as follows: FIC index=FIC (cefuroxime)+FIC (drug compound).
# (§2) The combination of ticlopidine and cefuroxime was further tested as above against a variety of S. aureus strains as shown in Table 1 below.
# FIC index=FIC (β-lactam)+FTC (ticlopidine). […]
# HA-MRSA EMRSA15 = experiment: Checkerboard (FIC) analysis, HA-MRSA EMRSA15; type: cell-based, Staphylococcus aureus; details: for MIC: Staphylococcus aureus
# HA-MRSA [2] = experiment: Checkerboard (FIC) analysis, HA-MRSA (Table 1 r16); type: cell-based, Staphylococcus aureus; details: for MIC: Staphylococcus aureus
# HA-MRSA [3] = experiment: Checkerboard (FIC) analysis, HA-MRSA (Table 1 r13); type: cell-based, Staphylococcus aureus; details: for MIC: Staphylococcus aureus
# Procedure: as §3
# HA-MRSA USA600 = experiment: Checkerboard (FIC) analysis, HA-MRSA USA600; type: cell-based, Staphylococcus aureus; details: for MIC: Staphylococcus aureus
# [4] = system: S. aureus (Newman strain); experiment: Checkerboard (FIC) analysis against S. aureus Newman; type: cell-based, Staphylococcus aureus; details: for MIC: Staphylococcus aureus
# MRSA = experiment: Analogues in combination with cefuroxime against MRSA (FIC index); type: cell-based, Staphylococcus aureus
# Procedure: A series of analogues were synthesized (as shown in Table 5) in which the thienopyridine ring was removed.
# These were tested in combination with cefuroxime against MRSA and results are shown below (Table 6).
# S. aureus strains = system: S. aureus strains
# Procedure: as §1, §2
# [5] = cefuroxime alone, read-out: MIC cefuroxime
# [6] = thienopyridine alone, CA-MRSA USA300 (Table 4), read-out: MIC thienopyridine
# [7] = in the presence of cefuroxime, CA-MRSA USA300 (Table 4)
# [8] = compound in combination with cefuroxime, MRSA (Table 5)
# [9] = novel analogue in combination with cefuroxime, MRSA (Table 6)
# [10] = ticlopidine alone, read-out: MIC ticlopidine
smiles,measurement,setting,value
CO/N=C(\C(=O)N[C@@H]1C(=O)N2C(C(=O)O)=C(COC(N)=O)CS[C@H]12)c1ccco1 [Cefuroxime],MIC,HA-MRSA USA200/EMRSA16; [5],1020 µg/mL
same,FIC cefuroxime,HA-MRSA USA200/EMRSA16; in the presence of ticlopidine,0.032
same,MIC,CA-MRSA USA400/MW2; [5],256 µg/mL
same,FIC cefuroxime,CA-MRSA USA400/MW2; in the presence of ticlopidine,0.063
same,FIC cefuroxime,RN4220; in the presence of ticlopidine,1
same,MIC,HA-MRSA USA100/800/NY; [5],1020 µg/mL
same,FIC cefuroxime,HA-MRSA USA100/800/NY; in the presence of ticlopidine,0.125
same,MIC,SA178R1; [5],0.5 µg/mL
same,FIC cefuroxime,SA178R1; in the presence of ticlopidine,1
same,FIC cefuroxime,"HA-MRSA [1]; HA-MRSA (Table 1 r10), in the presence of ticlopidine",0.250
same,MIC,"HA-MRSA [1]; HA-MRSA (Table 1 r10, no further strain name), cefuroxime alone, read-out: MIC cefuroxime",> 2050 µg/mL
same,MIC,HA-MRSA USA500; [5],32 µg/mL
same,FIC cefuroxime,HA-MRSA USA500; in the presence of ticlopidine,1
same,FIC cefuroxime,"CA-MRSA USA300; CA-MRSA USA300 (Table 1), in the presence of ticlopidine",0.032
same,MIC,"CA-MRSA USA300; CA-MRSA USA300 (Table 1), cefuroxime alone, read-out: MIC cefuroxime",512 µg/mL
same,MIC,"CA-MRSA USA300; cefuroxime alone, CA-MRSA USA300 (Table 4), read-out: MIC Cefuroxime",256 µg/mL
same,FIC index,"CA-MRSA USA300; antibiotic in combination with ticlopidine, CA-MRSA USA 300, FIC (β-lactam)+FIC (ticlopidine)",≦0.13
same,FIC cefuroxime,"CA-MRSA USA300; in the presence of clopidogrel, CA-MRSA USA300 (Table 4)",0.063
same,FIC cefuroxime,"CA-MRSA USA300; in the presence of prasugrel, CA-MRSA USA300 (Table 4)",0.25
same,FIC cefuroxime,"CA-MRSA USA300; in the presence of ticlopidine, CA-MRSA USA300 (Table 4)",0.03
same,MIC,HA-MRSA EMRSA15; [5],512 µg/mL
same,FIC cefuroxime,HA-MRSA EMRSA15; in the presence of ticlopidine,0.063
same,FIC cefuroxime,"HA-MRSA [2]; HA-MRSA (Table 1 r16), in the presence of ticlopidine",0.125
same,MIC,"HA-MRSA [2]; HA-MRSA (Table 1 r16, no further strain name), cefuroxime alone, read-out: MIC cefuroxime",2050 µg/mL
same,FIC cefuroxime,"HA-MRSA [3]; HA-MRSA (Table 1 r13), in the presence of ticlopidine",0.250
same,MIC,"HA-MRSA [3]; HA-MRSA (Table 1 r13, no further strain name), cefuroxime alone, read-out: MIC cefuroxime",> 2050 µg/mL
same,MIC,HA-MRSA USA600; [5],≥ 1020 µg/mL
same,FIC cefuroxime,HA-MRSA USA600; in the presence of ticlopidine,0.008
same,FIC cefuroxime,"[4]; Newman, in the presence of ticlopidine",0.125
same,MIC,"[4]; Newman, cefuroxime alone, read-out: MIC cefuroxime",2 µg/mL
same,FIC index,"[4]; antibiotic in combination with ticlopidine, S. aureus (Newman strain)",≦0.25
"COC(=O)[C@H](c1ccccc1Cl)N1CCc2sccc2C1 [Compound 19, (+)-(S)-methyl 2-(2-chlorophenyl)-2-(6,7-dihydrothieno[3,2-c]pyridin-5(4H)-yl)acetate]",MIC,CA-MRSA USA300; [6],> 128 µg/mL
same,FIC thienopyridine,CA-MRSA USA300; [7],0.13
same,FIC index,"CA-MRSA USA300; thienopyridine in combination with cefuroxime, CA-MRSA USA300 (Table 4), listed as Clopidogrel",≦0.20
same,FIC index,"CA-MRSA USA300; thienopyridine in combination with cefuroxime, CA-MRSA USA300 (Table 4), listed as clopidogrel",≤ 0.20
same,FIC index,MRSA; [8],≦0.187
"O=C(O)C(c1ccccc1Cl)N1CCc2ccccc2C1 (stereo not drawn) [Compound 4-novel, (2-Chloro-phenyl)-(3,4-dihydro-1H-isoquinolin-2-yl)-acetic acid]",FIC index,MRSA; [9],≦2
"Clc1ccccc1CN1CCCCC1 [Compound 12, 1-(2-Chloro-benzyl)-piperidine]",FIC index,MRSA; [8],≦2
"c1cc2c(s1)CCNC2 [Compound 2, 4,5,6,7-Tetrahydro-thieno[3,2-c]pyridine]",FIC index,MRSA; [8],≦2
"Clc1cccc(CN2CCc3ccccc3C2)c1 [Compound 4, 2-(3-Chloro-benzyl)-1,2,3,4-tetrahydro-isoquinoline]",FIC index,MRSA; [8],≦2
"O=[N+]([O-])c1ccccc1CN1CCc2ccccc2C1 [Compound 16, 2-(2-Nitro-benzyl)-1,2,3,4-tetrahydro-isoquinoline]",FIC index,MRSA; [8],≦0.187
"c1ccc2c(c1)CCN(Cc1ccncc1)C2 [Compound 7, 2-Pyridin-4-ylmethyl-1,2,3,4-tetrahydro-isoquinoline]",FIC index,MRSA; [8],≦2
"c1ccc2c(c1)CCN(Cc1ccc3ccccc3c1)C2 [Compound 3-novel, 2-Naphthalen-2-ylmethyl-1,2,3,4-tetrahydro-isoquinoline]",FIC index,MRSA; [9],≦0.312
O=C(O)C(c1ccccc1C(F)(F)F)N1CCc2ccccc2C1 (stereo not drawn) [Compound 23],FIC index,MRSA; [8],≦2
"Clc1ccccc1CN1CCc2sccc2C1 [Compound 1, 5-(2-Chloro-benzyl)-4,5,6,7-tetrahydro-thieno[3,2-c]pyridine]",MIC,HA-MRSA USA200/EMRSA16; [10],> 256 µg/mL
same,FIC ticlopidine,HA-MRSA USA200/EMRSA16; in the presence of cefuroxime,0.063
same,FIC index,HA-MRSA USA200/EMRSA16; ticlopidine + cefuroxime,≦0.095
same,MIC,CA-MRSA USA400/MW2; [10],> 256 µg/mL
same,FIC ticlopidine,CA-MRSA USA400/MW2; in the presence of cefuroxime,0.063
same,FIC index,CA-MRSA USA400/MW2; ticlopidine + cefuroxime,≦0.125
same,MIC,"RN4220; Staphylococcus aureus, ticlopidine alone",> 128 µg/mL
same,FIC ticlopidine,RN4220; in the presence of cefuroxime,1
same,FIC index,RN4220; ticlopidine + cefuroxime,≦2
same,MIC,HA-MRSA USA100/800/NY; [10],> 256 µg/mL
same,FIC ticlopidine,HA-MRSA USA100/800/NY; in the presence of cefuroxime,0.125
same,FIC index,HA-MRSA USA100/800/NY; ticlopidine + cefuroxime,≦0.250
same,MIC,SA178R1; [10],> 128 µg/mL
same,FIC ticlopidine,SA178R1; in the presence of cefuroxime,1
same,FIC index,SA178R1; ticlopidine + cefuroxime,≦2
same,FIC ticlopidine,"HA-MRSA [1]; HA-MRSA (Table 1 r10), in the presence of cefuroxime",0.032
same,FIC index,"HA-MRSA [1]; HA-MRSA (Table 1 r10), ticlopidine + cefuroxime",≦0.282
same,MIC,"HA-MRSA [1]; HA-MRSA (Table 1 r10), ticlopidine alone, read-out: MIC ticlopidine",> 256 µg/mL
same,MIC,HA-MRSA USA500; [10],> 256 µg/mL
same,FIC ticlopidine,HA-MRSA USA500; in the presence of cefuroxime,1
same,FIC index,HA-MRSA USA500; ticlopidine + cefuroxime,≦2
same,FIC ticlopidine,"CA-MRSA USA300; CA-MRSA USA300 (Table 1), in the presence of cefuroxime",0.032
same,FIC index,"CA-MRSA USA300; CA-MRSA USA300 (Table 1), ticlopidine + cefuroxime",≦0.063
same,MIC,"CA-MRSA USA300; CA-MRSA USA300 (Table 1), ticlopidine alone, read-out: MIC ticlopidine",> 256 µg/mL
same,MIC,CA-MRSA USA300; [6],> 128 µg/mL
same,drug-drug interaction with cefuroxime (checkerboard secondary screen),CA-MRSA USA300; in combination with cefuroxime,synergistic interactions
same,FIC thienopyridine,CA-MRSA USA300; [7],0.13
same,FIC index,"CA-MRSA USA300; thienopyridine in combination with cefuroxime, CA-MRSA USA300 (Table 4)",≦0.16
same,FIC index,"CA-MRSA USA300; ticlopidine in combination with cefuroxime, CA-MRSA USA 300, FIG. 2",≤ 0.12
same,MIC,HA-MRSA EMRSA15; [10],> 256 µg/mL
same,FIC ticlopidine,HA-MRSA EMRSA15; in the presence of cefuroxime,0.063
same,FIC index,HA-MRSA EMRSA15; ticlopidine + cefuroxime,≦0.125
same,FIC ticlopidine,"HA-MRSA [2]; HA-MRSA (Table 1 r16), in the presence of cefuroxime",0.063
same,FIC index,"HA-MRSA [2]; HA-MRSA (Table 1 r16), ticlopidine + cefuroxime",≦0.188
same,MIC,"HA-MRSA [2]; HA-MRSA (Table 1 r16), ticlopidine alone, read-out: MIC ticlopidine",> 256 µg/mL
same,FIC ticlopidine,"HA-MRSA [3]; HA-MRSA (Table 1 r13), in the presence of cefuroxime",0.016
same,FIC index,"HA-MRSA [3]; HA-MRSA (Table 1 r13), ticlopidine + cefuroxime",≦0.266
same,MIC,"HA-MRSA [3]; HA-MRSA (Table 1 r13), ticlopidine alone, read-out: MIC ticlopidine",> 256 µg/mL
same,MIC,HA-MRSA USA600; [10],> 256 µg/mL
same,FIC ticlopidine,HA-MRSA USA600; in the presence of cefuroxime,0.032
same,FIC index,HA-MRSA USA600; ticlopidine + cefuroxime,≦0.040
same,FIC ticlopidine,"[4]; Newman, in the presence of cefuroxime",0.125
same,FIC index,"[4]; Newman, ticlopidine + cefuroxime",≦0.250
same,MIC,"[4]; Newman, ticlopidine alone, read-out: MIC ticlopidine",> 256 µg/mL
same,methicillin-resistant strains (Canadian MRSA collection) in which potent synergy was retained,"S. aureus strains; ticlopidine + cefuroxime, including USA300",7 of 10
same,antibacterial activity alone,S. aureus strains; ticlopidine alone against the S. aureus strains of Table 1,no antibacterial activity alone
same,potentiation of the activity of the β-lactams,"S. aureus strains; ticlopidine in combination with a β-lactam, even in β-lactam-resistant S. aureus",over 32 fold
same,FIC index,MRSA; [8],≦0.125
O=C(O)C(c1ccccc1Cl)N1CCc2sccc2C1 (stereo not drawn) [Compound 20],FIC index,MRSA; [8],≦0.75
